Test system: liver fibrosis gene panel (770 genes)
Assay: Nanostring nCounter Fibrosis panel gene expression in liver of DEN-injected mice
Type: in vivo, mouse
Method: Nanostring Analysis. RNA was extracted from paired liver and tumor tissue from vehicle, Compound I-1 (100 mg/kg) and Compound I-32 (100 mg/kg) treated mice using an RNeasy kit (Qiagen, Calif., USA) as per manufacturer's protocol. All RNA samples passed the BioAnalyzer quality control test. The expression of target genes in liver and tumor were analyzed using the nCounter Fibrosis and Cancer Panel (NanoString Technologies, Inc., WA, USA), respectively according to manufacturer's protocol at the McMaster Genomics Facility. Technical and biological normalization against global geometric mean was performed in nSolver 4.0 software (NanoString Technologies). Technical normalization was performed in the nSolver software (version 4.0.70) by normalizing sample target raw counts to the geometric mean of positive control spike-ins. Biological normalization was performed by normalizing sample target raw counts to the geometric mean of selected housekeeping genes (Ppia, Nubp1, Nol7, Armh3, Rplp0, Cnot10, Pgk1, and Acad9). Pathway scores were calculated as the first principal component of the normalized expression values for all genes in each pathway and samples were compiled according to experimental groups to determine average pathway scores. Statistical significance was calculated between experimental groups using multiple t-tests and p-values were corrected for multiple comparisons using Benjamin-Hochberg false discovery rate.
Molecular analysis. To identify the pathways modulated in the liver and tumor tissue, nanostring analysis of fibrosis and cancer, pathways, respectively were completed in an n=8 mice treated with vehicle or Compound I-32 or Compound I-1 at 100 mg/kg.

## CC(C)(CCCCc1cccc(CCCCC(C)(C)C(=O)O)c1)C(=O)O [Compound I-32, 6-[3-(5-carboxy-5-methylhexyl)-phenyl]-2,2-dimethylhexanoic acid]
100 mg/kg, 4 weeks
  number of genes downregulated: 159
  number of genes upregulated: 71
  number of genes with altered expression relative to vehicle controls (770 genes measured): 231
NM_007409, 100 mg/kg, vs vehicle
  Adh1 Log2FC: 0.536
NM_007437, 100 mg/kg, vs vehicle
  Aldh3a2 Log2FC: 0.869
NM_007453, 100 mg/kg, vs vehicle
  Prdx6 Log2FC: −0.595
NM_007468, 100 mg/kg, vs vehicle
  Apoa4 Log2FC: −3.4
NM_007510, 100 mg/kg, vs vehicle
  Atp6v1e1 Log2FC: 0.153
NM_007611, 100 mg/kg, vs vehicle
  Casp7 Log2FC: −0.31
NM_007643, 100 mg/kg, vs vehicle
  Cd36 Log2FC: 1.02
NM_007664, 100 mg/kg, vs vehicle
  Cdh2 Log2FC: −0.165
NM_007678, 100 mg/kg, vs vehicle
  Cebpa Log2FC: −0.413
NM_007686, 100 mg/kg, vs vehicle
  Cfi Log2FC: −0.395
NM_007695, 100 mg/kg, vs vehicle
  Chil1 Log2FC: 2.58
NM_007743, 100 mg/kg, vs vehicle
  Col1a2 Log2FC: −0.588
NM_007748, 100 mg/kg, vs vehicle
  Cox6a1 Log2FC: 0.336
NM_007749, 100 mg/kg, vs vehicle
  Cox7c Log2FC: 0.459
NM_007768, 100 mg/kg, vs vehicle
  Crp Log2FC: −0.857
NM_007798, 100 mg/kg, vs vehicle
  Ctsb Log2FC: −0.216
NM_007807, 100 mg/kg, vs vehicle
  Cybb Log2FC: −0.644
NM_007815, 100 mg/kg, vs vehicle
  Cyp2c29 Log2FC: −0.646
NM_007824, 100 mg/kg, vs vehicle
  Cyp7a1 Log2FC: −1.38
NM_007858, 100 mg/kg, vs vehicle
  Diaph1 Log2FC: −0.265
NM_007940, 100 mg/kg, vs vehicle
  Ephx2 Log2FC: 0.562
NM_007976, 100 mg/kg, vs vehicle
  F5 Log2FC: −0.29
NM_007987, 100 mg/kg, vs vehicle
  Fas Log2FC: 0.226
NM_007988, 100 mg/kg, vs vehicle
  Fasn Log2FC: 1.09
NM_008063, 100 mg/kg, vs vehicle
  Slc37a4 Log2FC: −0.843
NM_008086, 100 mg/kg, vs vehicle
  Gas1 Log2FC: −0.696
NM_008150, 100 mg/kg, vs vehicle
  Gpc4 Log2FC: −0.381
NM_008212, 100 mg/kg, vs vehicle
  Hadh Log2FC: 0.258
NM_008288, 100 mg/kg, vs vehicle
  Hsd11b1 Log2FC: −1.23
NM_008292, 100 mg/kg, vs vehicle
  Hsd17b4 Log2FC: 0.446
NM_008320, 100 mg/kg, vs vehicle
  Irf8 Log2FC: −0.357
NM_008348, 100 mg/kg, vs vehicle
  Il10ra Log2FC: −0.578
NM_008395, 100 mg/kg, vs vehicle
  Itch Log2FC: −0.295
NM_008455, 100 mg/kg, vs vehicle
  Kikb1 Log2FC: −0.217
NM_008509, 100 mg/kg, vs vehicle
  Lpl Log2FC: 1.8
NM_008512, 100 mg/kg, vs vehicle
  Lrp1 Log2FC: −0.376
NM_008533, 100 mg/kg, vs vehicle
  Cd180 Log2FC: −0.606
NM_008555, 100 mg/kg, vs vehicle
  Masp1 Log2FC: −0.26
NM_008569, 100 mg/kg, vs vehicle
  Anapc1 Log2FC: −0.316
NM_008605, 100 mg/kg, vs vehicle
  Mmp12 Log2FC: −2.05
NM_008608, 100 mg/kg, vs vehicle
  Mmp14 Log2FC: −0.465
NM_008683, 100 mg/kg, vs vehicle
  Nedd8 Log2FC: 0.0875
NM_008797, 100 mg/kg, vs vehicle
  Pcx Log2FC: −0.521
NM_008874, 100 mg/kg, vs vehicle
  Plcb3 Log2FC: −0.297
NM_008877, 100 mg/kg, vs vehicle
  Plg Log2FC: −0.296
NM_008910, 100 mg/kg, vs vehicle
  Ppm1a Log2FC: 0.136
NM_008927, 100 mg/kg, vs vehicle
  Map2k1 Log2FC: −0.177
NM_009117, 100 mg/kg, vs vehicle
  Saa1/2 Log2FC: −1.96
NM_009127, 100 mg/kg, vs vehicle
  Scd1 Log2FC: 0.602
NM_009128, 100 mg/kg, vs vehicle
  Scd2 Log2FC: 0.949
NM_009166, 100 mg/kg, vs vehicle
  Sorbs1 Log2FC: −0.302
NM_009169, 100 mg/kg, vs vehicle
  Sem1 Log2FC: 0.298
NM_009279, 100 mg/kg, vs vehicle
  Ssr4 Log2FC: −0.228
NM_009370, 100 mg/kg, vs vehicle
  Tgfbr1 Log2FC: −0.309
NM_009422, 100 mg/kg, vs vehicle
  Traf2 Log2FC: −0.346
NM_009425, 100 mg/kg, vs vehicle
  Tnfsf10 Log2FC: −0.692
NM_009465, 100 mg/kg, vs vehicle
  Axl Log2FC: −0.418
NM_009677, 100 mg/kg, vs vehicle
  Ap1g1 Log2FC: −0.189
NM_009692, 100 mg/kg, vs vehicle
  Apoa1 Log2FC: −0.481
NM_009693, 100 mg/kg, vs vehicle
  Apob Log2FC: −0.227
NM_009743, 100 mg/kg, vs vehicle
  Bcl2l1 Log2FC: −0.248
NM_009776, 100 mg/kg, vs vehicle
  Serping1 Log2FC: −0.66
NM_009779, 100 mg/kg, vs vehicle
  C3ar1 Log2FC: −0.825
NM_009790, 100 mg/kg, vs vehicle
  Calm1 Log2FC: −0.327
NM_009810, 100 mg/kg, vs vehicle
  Casp3 Log2FC: −0.237
NM_009825, 100 mg/kg, vs vehicle
  Serpinh1 Log2FC: −0.531
NM_009870, 100 mg/kg, vs vehicle
  Cdk4 Log2FC: 0.181
NM_009888, 100 mg/kg, vs vehicle
  Cfh Log2FC: −1.41
NM_009930, 100 mg/kg, vs vehicle
  Col3a1 Log2FC: −0.679
NM_009975, 100 mg/kg, vs vehicle
  Csnk2b Log2FC: 0.0913
NM_009983, 100 mg/kg, vs vehicle
  Ctsd Log2FC: 0.331
NM_010011, 100 mg/kg, vs vehicle
  Cyp4a10/31/32 Log2FC: 2.88
NM_010185, 100 mg/kg, vs vehicle
  Fcer1g Log2FC: −0.427
NM_010233, 100 mg/kg, vs vehicle
  Fn1 Log2FC: −0.584
NM_010325, 100 mg/kg, vs vehicle
  Got2 Log2FC: 0.156
NM_010378, 100 mg/kg, vs vehicle
  H2-Aa Log2FC: −0.4
NM_010380, 100 mg/kg, vs vehicle
  H2-D1 Log2FC: −0.175
NM_010398, 100 mg/kg, vs vehicle
  H2-T23 Log2FC: −0.224
NM_010407, 100 mg/kg, vs vehicle
  Hck Log2FC: −0.667
NM_010431, 100 mg/kg, vs vehicle
  Hif1a Log2FC: 0.283
NM_010442, 100 mg/kg, vs vehicle
  Hmox1 Log2FC: −0.484
NM_010480, 100 mg/kg, vs vehicle
  Hsp90aa1 Log2FC: 0.361
NM_010493, 100 mg/kg, vs vehicle
  Icam1 Log2FC: −0.382
NM_010546, 100 mg/kg, vs vehicle
  Ikbkb Log2FC: −0.526
NM_010560, 100 mg/kg, vs vehicle
  II6st Log2FC: −0.296
NM_010562, 100 mg/kg, vs vehicle
  Ilk Log2FC: −0.109
NM_010578, 100 mg/kg, vs vehicle
  Itgb1 Log2FC: 0.143
NM_010634, 100 mg/kg, vs vehicle
  Fabp5 Log2FC: 1.44
NM_010704, 100 mg/kg, vs vehicle
  Lepr Log2FC: 0.604
NM_010724, 100 mg/kg, vs vehicle
  Psmb8 Log2FC: −0.801
NM_010747, 100 mg/kg, vs vehicle
  Lyn Log2FC: −0.295
NM_010766, 100 mg/kg, vs vehicle
  Marco Log2FC: −1.54
NM_011032, 100 mg/kg, vs vehicle
  P4hb Log2FC: −0.765
NM_011044, 100 mg/kg, vs vehicle
  Pck1 Log2FC: −1.99
NM_011125, 100 mg/kg, vs vehicle
  Pitp Log2FC: 1.37
NM_011146, 100 mg/kg, vs vehicle
  Pparg Log2FC: −0.592
NM_011159, 100 mg/kg, vs vehicle
  Prkdc Log2FC: −0.525
NM_011173, 100 mg/kg, vs vehicle
  Pros1 Log2FC: −0.208
NM_011175, 100 mg/kg, vs vehicle
  Lgmn Log2FC: −0.601
NM_011210, 100 mg/kg, vs vehicle
  Ptprc Log2FC: −0.47
NM_011311, 100 mg/kg, vs vehicle
  S100a4 Log2FC: −0.79
NM_011340, 100 mg/kg, vs vehicle
  Serpinf1 Log2FC: −0.208
NM_011434, 100 mg/kg, vs vehicle
  Sod1 Log2FC: 0.284
NM_011480, 100 mg/kg, vs vehicle
  Srebf1 Log2FC: −0.634
NM_011581, 100 mg/kg, vs vehicle
  Thbs2 Log2FC: −1.01
NM_011594, 100 mg/kg, vs vehicle
  Timp2 Log2FC: −0.451
NM_011597, 100 mg/kg, vs vehicle
  Tjp2 Log2FC: 0.199
NM_011602, 100 mg/kg, vs vehicle
  Tln1 Log2FC: −0.355
NM_011697, 100 mg/kg, vs vehicle
  Vegfb Log2FC: 0.521
NM_011996, 100 mg/kg, vs vehicle
  Adh4 Log2FC: −0.855
NM_012060, 100 mg/kg, vs vehicle
  Bcap31 Log2FC: −0.145
NM_013485, 100 mg/kg, vs vehicle
  C9 Log2FC: −1.25

Source: patent US11730712B2, “Functionalized long-chain hydrocarbon mono- and di-carboxylic acids and derivatives thereof, and their use for the prevention or treatment of disease” (ESPERVITA THERAPEUTICS, INC., priority 2021, dated 2023)
